Measured values: patent US20090281049A1, “New use of ginsenoside compound-k in manufacturing medicaments” (priority 2006, published 2009)

How the values were obtained:
[1] = system: carrageenan-induced acute inflammation in mice; assay: Carrageenan-induced paw edema in mice; format: in vivo, Kunming mice; conditions: 1 mg/kg po
[2] = system: Adjuvant Arthritis in rats; assay: Treatment effect on adjuvant induced adjuvant arthritis in rats; format: in vivo, Rat, SD strain; conditions: 1 mg/kg po
Protocol: (§1) Freund's Adjuvant Complete, purchased from Sigma Company, was injected into the plantar surface of the right hind paw by 0.1 ml in order to induce inflammation in rats.
(§2) Animals were firstly divided into large dose group: 10 mg/kg, iv, medium dose group: 5 mg/kg, iv, small dose group: 2.5 mg/kg, iv, Indomethacin group: 1 mg/kg, po, Tripterygium Wilfordii Hook group: 1.5 mg/kg, po. and blank control group: physiological saline 10 mg/kg, iv. The volume of the right hind paw of the rats was measured by using hydroplethismometer before inflammation induced. Then 0.1 ml Freund's Adjuvant Complete was injected into the plantar surface of the right hind paw in order to induce inflammation in rats. 20 days after inflammation induced, the rats were grouped by the foregoing division method and to be administered for 8 days. The volume of paw was measured in regular intervals. Swell rate and inhibition rate were calculated with the same method as the foregoing. Differences among groups were compared with t test.

[3] = system: Adjuvant Arthritis in rats; assay: Preventive effect on adjuvant induced adjuvant arthritis in rats; format: in vivo, Rat, SD strain; conditions: 1 mg/kg po
Protocol: as §1
as §2, with “mg/kg, po” for “mg/kg, po.”, “rats. The” for “rats. 20 days after inflammation induced, the”, “division way in the succeeding day,” for “division method”, “for 15” for “for 8”, “calculated by” for “calculated with”, “compared by” for “compared with”

[4] = system: carrageenan-induced acute inflammation in rats; assay: Carrageenan-induced paw edema in rats; format: in vivo, Rat, SD strain; conditions: 1 mg/kg po
Protocol: Animals were firstly divided into large dose group: 10 mg/kg, iv, medium dose group: 5 mg/kg, iv, small dose group: 2.5 mg/kg, iv, an Indomethacin group: 1 mg/kg, po and a blank control group: physiological saline 10 mg/kg, iv. The animals were administered by the foregoing method for 3 days. The volume of the right hind paw of the rats was measured using hydroplethismometer before inflammation induced. 1 hour after the last administration, 0.1 ml 1% carrageenan was injected into the plantar surface of the right hind paw in order to induce inflammation. The volume of the right hind paw of the rats was measured by hydroplethismometer every other hour thereafter respectively. Swell rate and inhibition rate were calculated by the same method as above. Differences among groups were compared with t test.

[5] = system: Collagen Type II (CII) induced arthritis in rats; assay: Preventive effect on Collagen Type II (CII) induced arthritis in rats; format: in vivo, Rat, SD strain; conditions: 9 mg/kg sc
Protocol: (§3) Inflammation-induced agent: Collagen Type II was dissolved in 0.1 mol/L acetic acid to make final concentration be 2 mg/ml collagen solution, and held in 4° C. overnight. The Collagen Type II solution was added to cold Freund's Adjuvant Incomplete by drops (Collagen Type II: Freund's Adjuvant Incomplete=1:1) on the next day, emulsified completely (Type II Collagen solution: Freund's Adjuvant Incomplete=1:1), and the final concentration of Collagen Type II was 1 mg/ml. The Collagen Type II emulsion was reserved in a refrigerator at 4° C.
(§4) Immune method: Each rat was immunized by being injected subcutaneously at 5 points on the back with 0.1 ml emulsion in each point, total of […] (contained 0.5 mg Collagen Type II), and immunized again in the same way 7 days later. An emulsion of 0.1 mol/L acetic acid and Freund's Adjuvant Incomplete was injected in control group. The swell values of the arthrosis in right hind ankle and foot were measured respectively by using a hydroplethismometer before injection and 20 days after immunization.
The Collagen Type II solution, which had been dissolved in acetic acid and held overnight, was adjusted to concentration 2 mg/ml, then added by drops slowly to Freund's Adjuvant Incomplete in proportion of 1:1. After the mixture was emulsified completely, each rat was injected subcutaneously at 5 points on the back with 0.1 ml emulsion in each point (total 0.5 ml in each rat, containing 0.5 mg Collagen Type II) for the first immunization. 7 days later, the second immunization was repeated in the same way.
The animals were divided into large dose group: Ginsenoside Compound-K, 10 mg/kg, iv, medium dose group: Ginsenoside Compound-K, 5 mg/kg, iv, small dose group: Ginsenoside Compound-K, 2.5 mg/kg, iv, Tripterygium Wilfordii Hook group: 1.5 mg/kg, po-, Enbrel group: 9 mg/kg, sc and blank control group: physiological saline 10 mg/kg, iv. The animals of administration groups were administered at the first immunization and stopped administering 8 days after the first immunization. The swell value of arthrosis in ankle and foot was measured by using hydroplethismometer before immunization and on day 20, 22, 24, 27 and 29 after the first immunization respectively. Swell rate and inhibition rate were calculated by the same method as the foregoing. Differences among groups were compared with t test. When the treatment finished, the arthroses in ankle and foot were taken for pathological examination.

[6] = system: Collagen Type II (CII) induced arthritis in rats; assay: Treatment effect on Collagen Type II (CII) induced arthritis in rats; format: in vivo, Rat, SD strain; conditions: 9 mg/kg sc
Protocol: as §3, §4
Collagen Type II (CII) and Freund's Adjuvant Incomplete were ground into emulsion and were injected subcutaneously into the back of the rats for immunization. Until the 19th day, most parts of the pedal joint of the rats began to swell. Picked 40 rats out which were with swelled pedal joint and divided them into […] subsequently, i.e. 8 rats in each group. They are respectively […]: Ginsenoside Compound-K, 10 mg/kg, iv, medium dose group: Ginsenoside Compound-K, 5 mg/kg, iv, small dose group: Ginsenoside Compound-K, 2.5 mg/kg, iv, Enbrel group: 9 mg/kg, sc, Tripterygium Wilfordii Hook group: 1.5 mg/kg, po. and blank control group: physiological saline 10 mg/kg, iv. The rats were administered for 8 days consecutively. The swell value of the foot was measured respectively by using hydroplethismometer before inflammation induced and at different time after the onset of symptoms, then calculated swell rate and prohibition rate, and compared the differences among groups with t test.

In the case of `COc1ccc2c(c1)c(CC(=O)O)c(C)n2C(=O)c1ccc(Cl)cc1` [Indomethacin, reference compound], the swell value ([1]; 0 h) was 1.47 ± 0.14 mL, the inhibition rate ([1]; 1 h) was <2.39> % and the swell rate ([1]; 1 h) was “(67.11 ± 17.30) %”. The swell value ([1]; 1 h) was 2.44 ± 0.19 mL, the inhibition rate ([1]; 2 h) was <16.11> % and the swell rate ([1]; 2 h) was “(60.95 ± 18.36) %”. For the same molecule, the swell value ([1]; 2 h) was 2.35 ± 0.20 mL, the inhibition rate ([1]; 4 h) was <36.57> % and the swell rate ([1]; 4 h) was “(51.04 ± 14.09) %”. The swell value ([1]; 4 h) was 2.21 ± 0.11 mL, the inhibition rate ([1]; 6 h) was <24.41> % and the swell rate ([1]; 6 h) was “(55.36 ± 19.90) %”. The swell value ([1]; 6 h) was 2.26 ± 0.11 mL, the swell value ([2]; 0 day) was 1.14 ± 0.05 mL and the inhibition rate ([2]; 19 day) was <18.65> %. For the same molecule, the swell rate ([2]; 19 day) was “(80.03 ± 17.69) %”, the swell value ([2]; 19 day) was 2.04 ± 0.20 mL and the inhibition rate ([2]; 21 day) was <19.05> %. For the same molecule, the swell rate ([2]; 21 day) was “(85.98 ± 15.49) %”, the swell value ([2]; 21 day) was 2.11 ± 0.17 mL and the inhibition rate ([2]; 23 day) was <19.09> %. For the same molecule, the swell rate ([2]; 23 day) was “(86.16 ± 15.90) %”, the swell value ([2]; 23 day) was 2.11 ± 0.17 mL and the inhibition rate ([2]; 26 day) was <20.41> %. For the same molecule, the swell rate ([2]; 26 day) was “(89.32 ± 16.25) %”, the swell value ([2]; 26 day) was 2.15 ± 0.16 mL and the inhibition rate ([2]; 30 day) was <12.14> %. The swell rate ([2]; 30 day) was “(92.39 ± 20.26) %”, the swell value ([2]; 30 day) was 2.18 ± 0.23 mL and the swell value ([3]; 0 day) was 1.23 ± 0.11 mL. The inhibition rate ([3]; 2 day) was <27.67> %, the swell rate ([3]; 2 day) was “(52.34 ± 15.07) %” and the swell value ([3]; 2 day) was 1.85 ± 0.09 mL. The inhibition rate ([3]; 4 day) was <20.69> %, the swell rate ([3]; 4 day) was “(70.99 ± 17.35) %” and the swell value ([3]; 4 day) was 2.08 ± 0.13 mL. For the same molecule, the inhibition rate ([3]; 6 day) was <12.34> %, the swell rate ([3]; 6 day) was “(78.32 ± 23.41) %” and the swell value ([3]; 6 day) was 2.17 ± 0.17 mL. The inhibition rate ([3]; 9 day) was <4.11> %, the swell rate ([3]; 9 day) was “(69.44 ± 27.12) %” and the swell value ([3]; 9 day) was 2.06 ± 0.23 mL. For the same molecule, the inhibition rate ([3]; 11 day) was <32.39> %, the swell rate ([3]; 11 day) was “(52.68 ± 12.02) %” and the swell value ([3]; 11 day) was 1.86 ± 0.13 mL. The inhibition rate ([3]; 13 day) was <35.93> %, the swell rate ([3]; 13 day) was “(53.00 ± 15.57) %” and the swell value ([3]; 13 day) was 1.86 ± 0.13 mL. For the same molecule, the inhibition rate ([3]; 15 day) was <35.50> %, the swell rate ([3]; 15 day) was “(52.00 ± 11.27) %” and the swell value ([3]; 15 day) was 1.86 ± 0.13 mL. The swell value ([4]; 0 h) was 1.34 ± 0.15 mL, the inhibition rate ([4]; 1 h) was <4.23> % and the swell rate ([4]; 1 h) was “(22.51 ± 10.19) %”. For the same molecule, the swell value ([4]; 1 h) was 1.68 ± 0.10 mL, the inhibition rate ([4]; 2 h) was <20.44> % and the swell rate ([4]; 2 h) was “(25.65 ± 14.10) %”. For the same molecule, the swell value ([4]; 2 h) was 1.72 ± 0.16 mL, the inhibition rate ([4]; 3 h) was <20.17> % and the swell rate ([4]; 3 h) was “(33.28 ± 13.54) %”. For the same molecule, the swell value ([4]; 3 h) was 1.82 ± 0.17 mL, the inhibition rate ([4]; 4 h) was <26.76> % and the swell rate ([4]; 4 h) was “(28.45 ± 15.71) %”. For the same molecule, the swell value ([4]; 4 h) was 1.77 ± 0.22 mL, the inhibition rate ([4]; 5 h) was <37.84> % and the swell rate ([4]; 5 h) was “(23.04 ± 11.45) %”. The swell value ([4]; 5 h) was 1.69 ± 0.15 mL.

For enbrel, the swell value ([5]; 0 day) was 1.06 ± 0.04 mL, the inhibition rate ([5]; 20 day) was <30.52> % and the swell rate ([5]; 20 day) was “(36.48 ± 15.50) %”. For the same molecule, the swell value ([5]; 20 day) was 1.38 ± 0.20 mL, the inhibition rate ([5]; 22 day) was <31.53> % and the swell rate ([5]; 22 day) was “(35.30 ± 14.25) %”. For the same molecule, the swell value ([5]; 22 day) was 1.36 ± 0.22 mL, the inhibition rate ([5]; 24 day) was <35.50> % and the swell rate ([5]; 24 day) was “(33.88 ± 13.57) %”. For the same molecule, the swell value ([5]; 24 day) was 1.34 ± 0.21 mL, the inhibition rate ([5]; 27 day) was <36.49> % and the swell rate ([5]; 27 day) was “(32.16 ± 15.12) %”. For the same molecule, the swell value ([5]; 27 day) was 1.34 ± 0.20 mL, the inhibition rate ([5]; 29 day) was <36.99> % and the swell rate ([5]; 29 day) was “(27.63 ± 10.87) %”. The swell value ([5]; 29 day) was 1.31 ± 0.16 mL, the swell value ([6]; 0 day) was 1.00 ± 0.08 mL and the inhibition rate ([6]; 20 day) was <4.41> %. For the same molecule, the swell rate ([6]; 20 day) was “(51.65 ± 15.35%”, the swell value ([6]; 20 day) was 1.51 ± 0.11 mL and the inhibition rate ([6]; 22 day) was <17.61> %. For the same molecule, the swell rate ([6]; 22 day) was “(49.63 ± 25.60) %”, the swell value ([6]; 22 day) was 1.48 ± 0.15 mL and the inhibition rate ([6]; 23 day) was <20.98> %. For the same molecule, the swell rate ([6]; 23 day) was “(49.20 ± 19.86) %”, the swell value ([6]; 23 day) was 1.48 ± 0.12 mL and the inhibition rate ([6]; 25 day) was <24.74> %. The swell rate ([6]; 25 day) was “(46.43 ± 15.37) %”, the swell value ([6]; 25 day) was 1.46 ± 0.11 mL and the inhibition rate ([6]; 28 day) was <27.88> %. The swell rate ([6]; 28 day) was “(37.24 ± 17.23) %”, the swell value ([6]; 28 day) was 1.36 ± 0.09 mL and the inhibition rate ([6]; 31 day) was <26.03> %. For the same molecule, the swell rate ([6]; 31 day) was “(36.24 ± 14.64) %” and the swell value ([6]; 31 day) was 1.35 ± 0.08 mL.
